Data set [1] has as its system high fat diet (HFD)-fed hamsters. Nature of the data set: Pharmacodynamic study in HFD-fed Golden Syrian hamsters (serum chemistry, hepatic lipids, histopathology). The format is in vivo. An excerpt:
The subjects for the study were 40 Golden Syrian male hamsters. Two cohorts were provided with either regular diet (RD) or high fat diet (HFD) for 10 weeks. 25HC3 S treatment was initiated at the start of Week 11. Group 1 remained on a regular diet while HFD-fed hamsters were randomly divided into three treatment groups (Groups 2-4; Table 20).
The Vehicle was a solution of 0.5% (w/v) CMC and 0.05% (v/v) Tween-80 in water. Powdered 25HC3 S was constituted into the vehicle solution to result in drug concentrations of 2.5 and 10 mg/mL. The suspensions were homogenized for approximately 5 minutes being combined, with 10 second breaks every 30-40 seconds and swirled before dosing to maintain homogeneity. The formulated test article was prepared weekly and kept at room temperature.
Hamsters were treated with 25HC3 S by daily oral gavage for 6 weeks while maintained on RD or HFD. Each hamster received daily doses of 25HC3S or vehicle by oral gavage (N=10/group). There were two dose groups (Groups 3 and 4): 10 and 50 mg/kg, as specified in Table 20, with dose volumes of 4 and 5 mL/kg, respectively.
For pharmacodynamic measures of efficacy, clinical chemistry parameters were measured by collection of fasting serum throughout the study to assess the effects of HFD and 25HC3S treatment compared to animals on a RD and given the vehicle control.
Assessments included, but were not limited to, assessment of activity, posture, respiration, emesis, seizure, hydration status, injection site assessment and overall body condition. At the end of the in-life portion of the study (Week 16), all animals were sacrificed and livers collected for biochemical and histopathology analyses.

Data set [2] in a line: Single SC injection PK study in Beagle dogs. The data set is classed as in vivo. The conditions noted are these: single SC dose 25 mg/kg. The method, then:
The subjects for the study were 5 male Beagle dogs (4-7 years of age; 8-11 kg). […] All animals were in healthy condition and admitted to the study.
The Vehicle was a solution of 3% (w/v) polyethylene glycol 3350, 0.3% (w/v) polysorbate 80, 0.7% (v/v) sodium chloride, 0.15% (w/v) L-methionine, 10 mM sodium phosphate buffer at pH 7.4 in water. 25HC3 S was mixed into the Vehicle solution to result in a drug concentration of 25 mg/mL. […] The formulated test article was used within 24 hours of constitution.
Each dog received a single subcutaneous injection. The dose level of 25 mg/kg was administered in a dose volume of 1 mL/kg. Whole blood samples were collected via the jugular vein at pre-dose, 0.5, 1, 2, 4, 8, 12, 24, and 32 hours (h) post dose. Blood samples were placed into tubes containing K2EDTA. The blood was gently mixed to assure distribution of the anti-coagulant and the resulting plasma samples underwent analyses to quantify 25HC3S levels. […] Assessments included, but were not limited to, evidence of pain on injection, assessment of activity, posture, respiration, emesis, seizure, hydration status, injection site assessment.

Data set [3] deals with APAP-induced liver failure. The experiment in a line: Acetaminophen (APAP)-induced model of acute liver failure. The settings on record: 25 mg/kg oral gavage 1 hr (and 24 hr) post APAP 300 mg/kg; vs vehicle. The format is in vivo, C57BL/6J mice. The protocol: The subjects for the study were 52 C57BL/6J male mice (12 weeks of age; 27.4-40 g). […] All animals were in healthy condition and admitted to the study.
The Vehicle was a solution of 0.5% (w/v) CMC and 0.05% (v/v) Tween-80 in water. Powdered 25HC3 S was constituted into the vehicle solution to result in a drug concentration of 3 mg/mL. The suspensions were homogenized at 20,000 rotations per minute (rpm) for approximately 5 minutes after being combined, with 10 second breaks every 30-40 seconds and swirled before dosing to maintain homogeneity. The formulated test article was prepared weekly and kept at room temperature.
Two groups of mice (N=14/group) were challenged with 300 mg/kg APAP by oral gavage. The two groups were treated with one dose of vehicle or 25HC3 S (25 mg/kg) by oral gavage at a dose volume of 8.33 mL/kg one hour post-APAP challenge. Half of the mice in each group (N=6-7/group) were given a second dose of vehicle or 25HC3 S (25 mg/kg) at 24 hour post-APAP delivery in addition to the first dose at 1 hr. Cohort A mice (single dose) were sacrificed 24 hrs post APAP-challenge and Cohort B mice (two doses) were sacrificed at 48 hours post APAP-challenge. A parallel set of untreated age-matched mice (no APAP and vehicle administered by oral gavage) were also sacrificed at both time points to compare baseline measurements (N=6/time point; 12 in total). […]

[4] abbreviates: HFD-fed hamsters, Group 3, 10 mg/kg daily oral gavage 6 weeks.
Where [5] appears, read: HFD-fed hamsters, Group 4, 50 mg/kg daily oral gavage 6 weeks.

`C[C@H](CCCC(C)(C)O)[C@H]1CC[C@H]2[C@@H]3CC=C4C[C@@H](OS(=O)(=O)[O-])CC[C@]4(C)[C@H]3CC[C@]12C.[Na+]` [Formulation 25HC3S, 5-cholesten-3, 25-diol, 3-sulfate]: the hepatic cholesterol levels result in data set [1] (10 mg/kg, 6 weeks) is listed as “no effect”; in data set [1] (50 mg/kg (Group 4), 6 weeks), “significantly reduced”. For the same compound, the “reduction in serum cholesterol levels” value in data set [1] (50 mg/kg (Group 4), 6 weeks of treatment (Week 16), not statistically significant) is 15-18%. Further, the “HFD-related liver weight gain” value in data set [1] (6 weeks of treatment) is “no statistically significant effect”. In addition, the “HDL and LDL cholesterol” value in data set [1] (6 weeks of treatment, HFD-fed hamsters) is “reduced both HDL and LDL cholesterol in a dose-dependent fashion”. In addition, in data set [1] (6 weeks of treatment, compared to vehicle), the “ALT and AST levels” value is “reduced both ALT and AST levels”. Moreover, in data set [1] (Group 4 (50 mg/kg)), the “incidence of “normal-appearing” livers at gross necropsy” value was found to be 22%. For the same compound, the “Hepatic Free Fatty Acids” value in data set [1] (setting [4]) is on record as 7.3 (±0.6) Meg/mg protein; in data set [1] (setting [5]), 6.6 (±1.4) Meg/mg protein. In addition, the “Hepatic Total Cholesterol” value in data set [1] (setting [4]) is given as 155.5 (±37.9) μg/mg protein; in data set [1] (HFD-fed hamsters, Group 4, 50 mg/kg daily oral gavage 6 weeks, p < 0.05 compared to Group 2), 75.2 (±45.7) μg/mg protein. Besides, the “Hepatic Triglyceride” value is listed as 66.1 (±23.3) μg/mg protein in data set [1] (setting [4]) and 46.4 (±15.6) μg/mg protein in data set [1] (setting [5]). Also, the clinical signs entry in data set [1] (PO daily for 6 weeks, hamsters) is on record as “did not result in any notable clinical signs”; in data set [2], “no observable clinical signs”. The “liver histopathology (H&E and Oil Red O)” value in data set [1] (dose-dependent, compared to HFD-fed control (Group 2)) was “considerably less microvesicular changes, reduced Oil Red 0 staining, and milder inflammation”. Besides, the serum triglyceride levels entry in data set [1] (treated groups vs vehicle across 6 weeks, not statistically significant) is recorded as “trending higher”. In addition, the hepatic triglyceride levels result in data set [1] (with increasing dosage, 6 weeks, did not reach statistical significance) is given as “Reduced”. Further, in data set [2] (PEG 3350 suspension 25 mg/mL), the “mean time to maximum plasma drug concentration” value was 23.2 h. Besides, the “mean concentration at 32 h” value in data set [2] (plasma) is given as 157.6 ng/mL. The “serum chemistry parameters (ALT, AST, ALK, LDH, BUN, glucose)” value in data set [3] is on record as “no effect”.

The values above are taken from patent US20220175798A1, “COMPOSITIONS COMPRISING OXYGENATED CHOLESTEROL SULFATE AND AT LEAST ONE OF POLYALKYLENE GLYCOL, CARBOXYMETHYL CELLULOSE AND POLYOXYLGLYCERIDE” (Durect Corporation, priority 2016, published 2022).
